From patent publication US10370371B2, “Substituted pyrimidine Bmi-1 inhibitors” (PTC Therapeutics, Inc., priority 2013, dated 2019) come the findings set out here.

Each structure is given as a SMILES string.

One may read the EC50 as the concentration giving half of the maximal effect. Low readings indicate an effect from little substance, high ones a need for much substance.

This assay deals with Bmi-1 protein. Description: Sandwich ELISA Assay (Bmi-1 protein level in HT-1080 cells). In kind it is cell-based. The method in brief:
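HT-1080 cells were treated with compounds (0.5% DMSO final) for 40-48 h at 37 °C. Lysates were assayed by sandwich ELISA: mouse anti-Bmi-1 capture, rabbit anti-Bmi-1 and HRP anti-rabbit detection, TMB read at OD450 (OD570 reference). Levels were quantified against a recombinant GST-Bmi-1 standard curve (125-8000 pg/mL).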
`Nc1cc(-c2c(C(F)(F)F)nn3ccccc23)nc(Nc2ccc(C(F)(F)F)cc2)n1` [Cpd 98, N^2-[4-(trifluoromethyl)phenyl]-6-[2-(trifluoromethyl)pyrazolo[1,5-a]pyridin-3-yl]pyrimidine-2,4-diamine] came in with an EC50 of 0.01 to 0.1 µM.
Next, `Cc1nc2ncc(F)cc2n1-c1cc(N)nc(Nc2ccc(C(F)(F)F)cc2)n1` [Cpd 100, 6-(6-fluoro-2-methyl-1H-imidazo[4,5-b]pyridin-1-yl)-N^2-[4-(trifluoromethyl)phenyl]pyrimidine-2,4-diamine]: 0.001 to 0.01 µM.
Next, `Cc1nc2ncc(F)cc2n1-c1cc(N)nc(Nc2ccc(OC(F)F)cc2)n1` [Cpd 101, N^2-[4-(difluoromethoxy)phenyl]-6-(6-fluoro-2-methyl-1H-imidazo[4,5-b]pyridin-1-yl)pyrimidine-2,4-diamine]: 0.001 to 0.01 µM; `Cc1nc2cc(F)ccc2n1-c1cc(N)nc(Nc2ccc(C(F)(F)F)cc2)n1` [Cpd 102, 6-(5-fluoro-2-methyl-1H-benzimidazol-1-yl)-N^2-[4-(trifluoromethyl)phenyl]pyrimidine-2,4-diamine]: 0.01 to 0.1 µM.
Next, `CCc1nc2cc(F)ccc2n1-c1cc(N)nc(Nc2ccc(C(F)(F)F)cc2)n1` [Cpd 104, 6-(2-ethyl-5-fluoro-1-benzimidazol-1-yl)-N^2-[4-(trifluoromethyl)phenyl]pyrimidine-2,4-diamine]: 0.01 to 0.1 µM.
The compound `Nc1cc(-c2c(C3CC3)nn3ccc(F)cc23)nc(Nc2ccc(C(F)(F)F)cc2)n1` [Cpd 107, 6-(2-cyclopropyl-5-fluoropyrazolo[1,5-a]pyridin-3-yl)-N^2-[4-(trifluoromethyl)phenyl]pyrimidine-2,4-diamine] showed a concentration giving a half-maximal response (EC50) of 0.1 to 3 µM.
Compound `Cc1nc2c(cc(F)c[n+]2[O-])n1-c1cc(N)nc(Nc2ccc(C(F)(F)F)cc2)n1` [Cpd 108, 6-(6-fluoro-2-methyl-4-oxido-1H-imidazo[4,5-b]pyridin-1-yl)-N^2-[4-(trifluoromethyl)phenyl]pyrimidine-2,4-diamine] yielded an EC50 of 0.1 to 3 µM.
As for `Cc1nn2ccc(F)cc2c1-c1cc(N)nc(Nc2ccc(C(F)(F)F)cc2)n1` [Cpd 109, 6-(5-fluoro-2-methylpyrazolo[1,5-a]pyridin-3-yl)-N^2-[4-(trifluoromethyl)phenyl]pyrimidine-2,4-diamine], the figure is 0.01 to 0.1 µM; as for `Cc1nc2ccccc2n1-c1cc(N)[n+]([O-])c(Nc2ccc(C(F)(F)F)cc2)n1` [Cpd 110, 6-(2-methyl-1H-benzimidazol-1-yl)-N^2-[4-(trifluoromethyl)phenyl]pyrimidine-2,4-diamine 3-oxide], 0.1 to 3 µM; as for `Cc1nc2ccc(F)cc2n1-c1cc(N)[n+]([O-])c(Nc2ccc(C(F)(F)F)cc2)n1` [Cpd 112, 6-(6-fluoro-2-methyl-1H-benzimidazol-1-yl)-N^2-[4-(trifluoromethyl)phenyl]pyrimidine-2,4-diamine 3-oxide], 0.1 to 3 µM.
As for `COc1ccn2nc(C)c(-c3cc(Cl)nc(Nc4ccc(C(F)(F)F)cc4)n3)c2c1` [Cpd 113, 4-chloro-6-(5-methoxy-2-methylpyrazolo[1,5-a]pyridin-3-yl)-N-[4-(trifluoromethyl)phenyl]pyrimidin-2-amine], the figure is 0.01 to 0.1 µM; as for `COc1ccn2nc(C)c(-c3cc(N)nc(Nc4ccc(C(F)(F)F)cc4)n3)c2c1` [Cpd 114, 6-(5-methoxy-2-methylpyrazolo[1,5-a]pyridin-3-yl)-N^2-[4-(trifluoromethyl)phenyl]pyrimidine-2,4-diamine], 0.01 to 0.1 µM; as for `Cc1nc2cc(F)c(F)cc2n1-c1cc(N)[n+]([O-])c(Nc2ccc(OC(F)F)cc2)n1` [Cpd 115, N^2-[4-(difluoromethoxy)phenyl]-6-(5,6-difluoro-2-methyl-1H-benzimidazol-1-yl)pyrimidine-2,4-diamine 3-oxide], 0.1 to 3 µM.
As for `Nc1cc(-n2c(C3CC3)nc3ccccc32)nc(Nc2ccc(C(F)(F)F)cc2)[n+]1[O-]` [Cpd 116, 6-(2-cyclopropyl-1H-benzimidazol-1-yl)-N^2-[4-(trifluoromethyl)phenyl]pyrimidine-2,4-diamine 3-oxide], the figure is 0.1 to 3 µM; as for `CCc1nc2ccccc2n1-c1cc(N)[n+]([O-])c(Nc2ccc(C(F)(F)F)cc2)n1` [Cpd 118, 6-(2-ethyl-1H-benzimidazol-1-yl)-N^2-[4-(trifluoromethyl)phenyl]pyrimidine-2,4-diamine 3-oxide], 0.1 to 3 µM; as for `CCc1nc2ccc(F)cc2n1-c1cc(N)[n+]([O-])c(Nc2ccc(C(F)(F)F)cc2)n1` [Cpd 119, 6-(2-ethyl-6-fluoro-1H-benzimidazol-1-yl)-N^2-[4-(trifluoromethyl)phenyl]pyrimidine-2,4-diamine 3-oxide], 0.1 to 3 µM.
As to `Cc1nn2ccc(N)cc2c1-c1cc(N)nc(Nc2ccc(C(F)(F)F)cc2)n1` [Cpd 120, 6-(5-amino-2-methylpyrazolo[1,5-a]pyridin-3-yl)-N^2-[4-(trifluoromethyl)phenyl]pyrimidine-2,4-diamine], the EC50 is 0.01 to 0.1 µM.
On to `Cc1nn2ccc(Cl)cc2c1-c1cc(N)nc(Nc2ccc(OC(F)F)cc2)n1` [Cpd 121, 6-(5-chloro-2-methylpyrazolo[1,5-a]pyridin-3-yl)-N^2-[4-(difluoromethoxy)phenyl]pyrimidine-2,4-diamine], for which the EC50 fell in the range of 0.01 to 0.1 µM.
Next, `Cc1nn2ccc(Cl)cc2c1-c1cc(N)nc(Nc2ccc(C(F)(F)F)cc2)n1` [Cpd 122, 6-(5-chloro-2-methylpyrazolo[1,5-a]pyridin-3-yl)-N^2-[4-(trifluoromethyl)phenyl]pyrimidine-2,4-diamine]: 0.01 to 0.1 µM; `CSc1nc2ccccc2n1-c1cc(N)nc(Nc2ccc(C(F)(F)F)cc2)n1` [Cpd 123, 6-[2-(methylsulfanyl)-1H-benzimidazol-1-yl]-N^2-[4-(trifluoromethyl)phenyl]pyrimidine-2,4-diamine]: 0.01 to 0.1 µM; `CCc1nn2ccc(Cl)cc2c1-c1cc(N)nc(Nc2ccc(C(F)(F)F)cc2)n1` [Cpd 124, 6-(5-chloro-2-ethylpyrazolo[1,5-a]pyridin-3-yl)-N^2-[4-(trifluoromethyl)phenyl]pyrimidine-2,4-diamine]: 0.01 to 0.1 µM.
As for `CCc1nn2ccc(Cl)cc2c1-c1cc(N)nc(Nc2ccc(OC(F)F)cc2)n1` [Cpd 125, 6-(5-chloro-2-ethylpyrazolo[1,5-a]pyridin-3-yl)-N^2-[4-(difluoromethoxy)phenyl]pyrimidine-2,4-diamine], the figure is 0.01 to 0.1 µM.
As for `Cc1cccc(Nc2nc(N)cc(-n3c(C)nc4ccccc43)n2)c1` [Cpd 127, 6-(2-methyl-1H-benzimidazol-1-yl)-N^2-(3-methylphenyl)pyrimidine-2,4-diamine], the figure is 0.1 to 3 µM; as for `Cc1ccc(Nc2nc(N)cc(-n3c(C)nc4ccccc43)n2)cc1` [Cpd 128, 6-(2-methyl-1H-benzimidazol-1-yl)-N^2-(4-methylphenyl)pyrimidine-2,4-diamine], 0.001 to 0.01 µM.
On to `Cc1nc2ccccc2n1-c1cc(N)nc(Nc2ccc(Br)cc2)n1` [Cpd 131, N^2-(4-bromophenyl)-6-(2-methyl-1H-benzimidazol-1-yl)pyrimidine-2,4-diamine], for which the EC50 fell in the range of 0.01 to 0.1 µM.
With `Cc1nc2ccccc2n1-c1cc(N)nc(Nc2ccc([N+](=O)[O-])cc2)n1` [Cpd 132, 6-(2-methyl-1H-benzimidazol-1-yl)-N^2-(4-nitrophenyl)pyrimidine-2,4-diamine], the concentration giving a half-maximal response (EC50) is 0.1 to 3 µM.
Next, `COc1ccc(Nc2nc(N)cc(-n3c(C)nc4ccc(F)cc43)n2)cc1` [Cpd 133, 6-(6-fluoro-2-methyl-1H-benzimidazol-1-yl)-N^2-(4-methoxyphenyl)pyrimidine-2,4-diamine]: 0.001 to 0.01 µM; `Cc1nc2ccccc2n1-c1cc(N)nc(Nc2ccc(N(C)C)cc2)n1` [Cpd 144, N^2-[4-(dimethylamino)phenyl]-6-(2-methyl-1H-benzimidazol-1-yl)pyrimidine-2,4-diamine]: 0.001 to 0.01 µM.
As for `Cc1nc2ccccc2n1-c1cc(N)nc(Nc2ccc(C#N)cc2)n1` [Cpd 145, 4-{[4-amino-6-(2-methyl-1H-benzimidazol-1-yl)pyrimidin-2-yl]amino}benzonitrile], the figure is 0.1 to 3 µM; as for `Cc1nc2ccccc2n1-c1cc(N)nc(Nc2ccc(OC(F)(F)F)cc2)n1` [Cpd 146, 6-(2-methyl-1H-benzimidazol-1-yl)-N^2-[4-(trifluoromethoxy)phenyl]pyrimidine-2,4-diamine], 0.1 to 3 µM.
For the compound `Cc1nc2ccccc2n1-c1cc(N)nc(Nc2ccc3c(c2)OC(F)(F)O3)n1` [Cpd 147, N^2-(2,2-difluoro-1,3-benzodioxol-5-yl)-6-(2-methyl-1H-benzimidazol-1-yl)pyrimidine-2,4-diamine], the EC50 is 0.1 to 3 µM.
As to `COc1ccc(Nc2nc(N)cc(-n3c(C)nc4ccccc43)n2)cc1Cl` [Cpd 149, N^2-(3-chloro-4-methoxyphenyl)-6-(2-methyl-1H-benzimidazol-1-yl)pyrimidine-2,4-diamine], the EC50 fell in the range of 0.001 to 0.01 µM.
Compound `CCc1nc2ccccc2n1-c1cc(N)nc(Nc2ccc(C)cc2)n1` [Cpd 153, 6-(2-ethyl-1H-benzimidazol-1-yl)-N^2-(4-methylphenyl)pyrimidine-2,4-diamine] returned an EC50 of 0.001 to 0.01 µM.
`CCc1nc2ccc(F)cc2n1-c1cc(N)nc(Nc2cccc(Cl)c2)n1` [Cpd 164, N^2-(3-chlorophenyl)-6-(2-ethyl-6-fluoro-1H-benzimidazol-1-yl)pyrimidine-2,4-diamine]: the EC50 was 0.1 to 3 µM.
As for `COc1ccc(Nc2nc(N)cc(-c3c(C)nc4ccc(F)cn34)n2)cc1` [Cpd 170, 6-(6-fluoro-2-methylimidazo[1,2-a]pyridin-3-yl)-N^2-(4-methoxyphenyl)pyrimidine-2,4-diamine], the figure is 0.001 to 0.01 µM.
As for `Cc1ccc(Nc2nc(N)cc(-c3c(C)nc4ccc(F)cn34)n2)cc1` [Cpd 171, 6-(6-fluoro-2-methylimidazo[1,2-a]pyridin-3-yl)-N^2-(4-methylphenyl)pyrimidine-2,4-diamine], the figure is 0.001 to 0.01 µM.
